{
  "source": "ChEMBL document CHEMBL4706623",
  "about": "“GPR52 Antagonist Reduces Huntingtin Levels and Ameliorates Huntington's Disease-Related Phenotypes” (J Med Chem, 2021)",
  "key": {"Mus musculus [1]": {"system": "Mus musculus", "assay": "Neuroprotective activity in HdhQ140 knock-in mouse model assessed as decrease in staining intensity of microglia in striatum at 5 mg/kg, iv QD for 4 weeks by Iba1 staining based immunostaining analysis", "type": "functional, organism-based"}, "[2]": {"molecular_target": "G-protein coupled receptor 52 (Homo sapiens, UniProt Q9Y2T5)", "sequence (Q9Y2T5 whole entry)": "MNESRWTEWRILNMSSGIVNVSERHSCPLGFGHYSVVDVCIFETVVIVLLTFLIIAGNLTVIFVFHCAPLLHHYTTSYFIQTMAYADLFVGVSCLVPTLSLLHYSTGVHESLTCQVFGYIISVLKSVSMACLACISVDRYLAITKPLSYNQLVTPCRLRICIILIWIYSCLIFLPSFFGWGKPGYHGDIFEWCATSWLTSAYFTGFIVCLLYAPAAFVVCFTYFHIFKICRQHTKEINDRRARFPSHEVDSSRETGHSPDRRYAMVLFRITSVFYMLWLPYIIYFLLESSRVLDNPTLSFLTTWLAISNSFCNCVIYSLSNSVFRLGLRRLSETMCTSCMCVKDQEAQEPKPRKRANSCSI", "assay": "Antagonist activity at GPR52 (unknown origin) expressed in HEK293 cells assessed as inhibition of WO459-induced cAMP accumulation preincubated for 15 mins followed by WO459 addition and measured after 30 mins by LANCE Ultra cAMP kit based microplate reader analysis", "type": "functional, cell-based", "conditions": "read-out: IC50"}, "[3]": {"molecular_target": "G-protein coupled receptor 52 (Mus musculus) (UniProt P0C5J4)", "sequence (P0C5J4 whole entry)": "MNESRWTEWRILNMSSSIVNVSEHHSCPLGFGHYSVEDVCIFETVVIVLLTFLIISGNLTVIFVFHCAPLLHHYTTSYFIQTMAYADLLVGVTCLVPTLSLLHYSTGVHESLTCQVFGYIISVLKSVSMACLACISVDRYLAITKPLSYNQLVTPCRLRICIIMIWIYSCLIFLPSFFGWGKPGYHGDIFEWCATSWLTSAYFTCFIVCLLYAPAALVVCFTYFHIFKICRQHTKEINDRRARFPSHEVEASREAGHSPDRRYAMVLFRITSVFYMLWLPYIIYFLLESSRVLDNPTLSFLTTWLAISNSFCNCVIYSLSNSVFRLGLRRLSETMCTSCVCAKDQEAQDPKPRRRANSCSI", "assay": "Antagonist activity at GPR52 in mouse STHdhQ7/111 cells assessed as decrease in mHTT levels incubated for 48 hrs in presence of 2B7-terbium and 2166-D2 antibodies by TR-FRET", "type": "cell-based", "conditions": "filed as antagonist, dose 0.3-10 µM"}, "[4]": {"molecular_target": "G-protein coupled receptor 52 (Mus musculus) (UniProt P0C5J4)", "assay": "Antagonist activity at GPR52 in mouse STHdhQ7/111 cells assessed as decrease in mHTT levels at 1 to 10 uM incubated for 48 hrs in presence of 2B7-terbium and 2166-D2 antibodies by western blot analysis", "type": "cell-based", "conditions": "filed as antagonist, dose 1-10 µM"}, "[5]": {"molecular_target": "G-protein coupled receptor 52 (Mus musculus) (UniProt P0C5J4)", "assay": "Antagonist activity at GPR52 in mouse STHdhQ7/111 cells assessed as decrease in wild type HTT levels at 1 to 10 uM incubated for 48 hrs in presence of 2B7-terbium and 2166-D2 antibodies by western blot analysis", "type": "cell-based", "conditions": "filed as antagonist, dose 1-10 µM"}, "STHdhQ7/111 [6]": {"system": "STHdhQ7/111", "assay": "Decrease in mHTT level in GPR52 knockdown mouse STHdhQ7/111 cells with at 1 to 10 uM incubated for 48 hrs in presence of 2B7-terbium and 2166-D2 antibodies by TR-FRET analysis", "type": "functional, cell-based", "conditions": "dose 1-10 µM"}, "STHdhQ7/111 [7]": {"system": "STHdhQ7/111", "assay": "Decrease in wild type HTT level in GPR52 knockdown mouse STHdhQ7/111 cells with at 1 to 10 uM incubated for 48 hrs in presence of 2B7-terbium and 2166-D2 antibodies by TR-FRET analysis", "type": "functional, cell-based", "conditions": "dose 1-10 µM"}, "[8]": {"molecular_target": "G-protein coupled receptor 52 (Mus musculus) (UniProt P0C5J4)", "assay": "Antagonist activity at GPR52 in neurons from HdhQ7/Q140 mouse assessed as decrease in mHTT levels at 0.1 to 3 uM incubated for 48 hrs in presence of 2B7-terbium and 2166-D2 antibodies by TR-FRET analysis", "type": "tissue-based", "conditions": "Neuron, filed as antagonist, dose 0.1-3 µM"}, "[9]": {"molecular_target": "G-protein coupled receptor 52 (Mus musculus) (UniProt P0C5J4)", "assay": "Antagonist activity at GPR52 in neurons from HdhQ7/Q140 mouse assessed as decrease in wild type HTT levels at 0.1 to 3 uM incubated for 48 hrs in presence of 2B7-terbium and 2166-D2 antibodies by TR-FRET analysis", "type": "tissue-based", "conditions": "Neuron, filed as antagonist, dose 0.1-3 µM"}, "[10]": {"molecular_target": "G-protein coupled receptor 52 (Mus musculus) (UniProt P0C5J4)", "assay": "Antagonist activity at GPR52 in neurons from HdhQ7/Q140 mouse assessed as decrease in mHTT levels at 0.3 to 3 uM incubated for 48 hrs in presence of 2B7-terbium and 2166-D2 antibodies by western blot analysis", "conditions": "Neuron, filed as antagonist, dose 0.3-3 µM"}, "[11]": {"molecular_target": "G-protein coupled receptor 52 (Mus musculus) (UniProt P0C5J4)", "assay": "Antagonist activity at GPR52 in neurons from HdhQ7/Q140 mouse assessed as decrease in wild type HTT levels at 0.3 to 3 uM incubated for 48 hrs in presence of 2B7-terbium and 2166-D2 antibodies by western blot analysis", "type": "tissue-based", "conditions": "Neuron, filed as antagonist, dose 0.3-3 µM"}, "Neuron [12]": {"system": "Neuron", "assay": "Neuroprotective activity in neurons from HdhQ7/Q140 mouse assessed as rescue from mHTT-induced neuronal loss at 3 uM incubated for 48 hrs maintained in absence of growth factor N2 and B27 under starvation condition by immunostaining based analysis", "type": "functional, tissue-based"}, "Neuron [13]": {"system": "Neuron", "assay": "Neuroprotective activity in neurons from HdhQ7/Q140 mouse assessed as rescue from mHTT-induced neuronal loss by measuring reduction in caspase 3 activity at 3 uM incubated for 48 hrs maintained in absence of growth factor N2 and B27 under starvation condition by green fluorescent dye based assay", "type": "functional, tissue-based"}, "[14]": {"molecular_target": "G-protein coupled receptor 52 (Mus musculus) (UniProt P0C5J4)", "assay": "In vivo antagonist activity at GPR52 in HdhQ140 knock-in mouse model assessed as reduction in mHTT levels in striatum at 0.5 mM, icv QD for 3 weeks by TR-FRET analysis", "type": "functional"}, "[15]": {"molecular_target": "G-protein coupled receptor 52 (Mus musculus) (UniProt P0C5J4)", "assay": "In vivo antagonist activity at GPR52 in HdhQ140 knock-in mouse model assessed as reduction in mHTT levels in cortex at 0.5 mM, icv QD for 3 weeks by TR-FRET analysis", "type": "functional"}, "[16]": {"molecular_target": "G-protein coupled receptor 52 (Mus musculus) (UniProt P0C5J4)", "assay": "In vivo antagonist activity at GPR52 in wild type mouse model assessed as reduction in wild type HTT levels at 0.5 mM, icv QD for 3 weeks by TR-FRET analysis", "type": "functional"}, "[17]": {"molecular_target": "G-protein coupled receptor 52 (Mus musculus) (UniProt P0C5J4)", "assay": "In vivo antagonist activity at GPR52 in HdhQ140 knock-in mouse model assessed as reduction in mHTT aggregate levels in striatum at 0.5 mM, icv QD for 3 weeks by S380 antibody based immunostaining based analysis", "type": "functional"}, "Mus musculus [18]": {"system": "Mus musculus", "assay": "Neuroprotective activity in HdhQ140 knock-in mouse model assessed as decrease in staining intensity of microglia in striatum at 0.5 mM, icv QD for 3 weeks by Iba1staining based immunostaining analysis", "type": "functional, organism-based"}, "[19]": {"assay": "Drug uptake in wild type mouse brain at 5 mg/kg, iv measured 0.5 to 6 hrs", "type": "ADME, organism-based", "conditions": "in vivo, time 0.5-6 hrs, read-out: Drug uptake"}, "Mus musculus [20]": {"system": "Mus musculus", "assay": "Neuroprotective activity in HdhQ140 mouse model assessed as latency to fall at 5 mg/kg, iv QD for 4 weeks by rotarod test", "type": "functional, organism-based"}, "[21]": {"assay": "Neurotoxicity in wild type mouse assessed as motor deficiency by measuring latency to fall at 5 mg/kg, iv QD for 4 weeks by rotarod test", "type": "toxicity, organism-based", "conditions": "in vivo, 672 h"}},
  "note": "Calls of active or inactive are those of the source. No cut-off for these calls is given here.",
  "data": [
    {"smiles": "O=C(/C=C/CCc1ccccc1)c1ccco1", "values": [
      {"measurement": "Activity", "setting": "Mus musculus [1]", "value": "Active"},
      {"measurement": "IC50", "setting": "[2]", "value": 0.63, "unit": "µM"},
      {"measurement": "Activity", "setting": "[3]", "value": "Dose-dependent effect"},
      {"measurement": "Activity", "setting": "[4]", "value": "Active"},
      {"measurement": "Activity", "setting": "[5]", "value": "Active"},
      {"measurement": "Activity", "setting": "STHdhQ7/111 [6]", "value": "inactive"},
      {"measurement": "Activity", "setting": "STHdhQ7/111 [7]", "value": "inactive"},
      {"measurement": "Activity", "setting": "[8]", "value": "Active"},
      {"measurement": "Activity", "setting": "[9]", "value": "Active"},
      {"measurement": "Activity", "setting": "[10]", "value": "Active"},
      {"measurement": "Activity", "setting": "[11]", "value": "Active"},
      {"measurement": "Activity", "setting": "Neuron [12]", "value": "Active"},
      {"measurement": "Activity", "setting": "Neuron [13]", "value": "Active"},
      {"measurement": "Activity", "setting": "[14]", "value": "Active"},
      {"measurement": "Activity", "setting": "[15]", "value": "inactive"},
      {"measurement": "Activity", "setting": "[16]", "value": "inactive"},
      {"measurement": "Activity", "setting": "[17]", "value": "Active"},
      {"measurement": "Activity", "setting": "Mus musculus [18]", "value": "Active"},
      {"measurement": "concentration", "setting": "[19]", "value": 0.02, "unit": "µM"},
      {"measurement": "Activity", "setting": "Mus musculus [20]", "value": "Active"},
      {"measurement": "Activity", "setting": "[21]", "value": "Non-Toxic"}
    ]}
  ]
}
